Laboratory results: patent US20090053168A1, “TREATMENTS OF B-CELL PROLIFERATIVE DISORDERS” (priority 2007, published 2009)
Several values for one entry are separate records, joined by “and”; a condition that tells them apart may be missing. Equal entries are not always repeated. Where two headings read alike, the source gives them in different places.

Columns and labels:
[1] = tested on: chronic lymphocytic leukemia (CLL) cells; test: Apoptosis assay (Hoechst 33342 flow cytometry, 48 h) on patient CLL cells; assay type: cell-based, human
Excerpt: Patients with active infections or other serious medical conditions were not included in this study. Patients with white blood cell counts of less than 15,000/μl by automated analysis were excluded from this study. Whole blood was layered on Ficoll-Hystopaque (Sigma), and peripheral blood mononuclear cells (PBMC) isolated after centrification. […] One million cells were stained with anti-CD5-PE and anti-CD19-PE-Cy5 (Becton […].). The percentage of B-CLL cells was defined as the percentage of cells doubly expressing CD5 and CD19, as determined by flow cytometry. […] Compound master plates were diluted 1:50 into complete media to create working compound dilutions. Compound crosses were then created by diluting two working dilution plates 1:10 into each plate of cells. […] Hoechst 33342 (Molecular Probes, Eugene Oreg.) at a final concentration of 0.25 μg/mL was added to each well and the cells incubated at 37° C. for an additional ten minutes before being placed on ice until analysis. Plates were then analyzed on a LSR-II flow cytometer (Becton Dickenson, Franklin Lakes, N.J.) equipped with the High Throughput Sampling (HTS) option in high throughput mode. […] The apoptotic fraction was calculated using FlowJo software (Tree Star Inc., Ashland, Oreg.) after excluding debris by a FSC/SSC gate and subsequently gating for cells that accumulate the Hoechst dye.

[2] = tested on: RPMI-8226 cells; test: Anti-proliferation assay (ATPLite, 72 h), RPMI-8226; assay type: cell-based; settings: in combination with ADAC; RPMI-8226
[3] = tested on: H929 cells; test: Anti-proliferation assay (ATPLite, 72 h), H929; assay type: cell-based
[4] = tested on: EJM cells; test: Anti-proliferation assay (ATPLite, 72 h), EJM; assay type: cell-based
[5] = tested on: KSM-12-PE cells; test: Anti-proliferation assay (ATPLite, 72 h), KSM-12-PE; assay type: cell-based
[6] = tested on: SU-DHL6 DLBCL cells; test: Anti-proliferation assay (ATPLite, 72 h), SU-DHL6; assay type: cell-based; settings: in combination with CGS-21680
[7] = tested on: MM.1S cells; test: Anti-proliferation assay (ATPLite, 72 h), MM.1S
[8] = tested on: ANBL-6 cells; test: Anti-proliferation assay (ATPLite, 72 h), ANBL-6; assay type: cell-based; settings: in combination with CGS-21680
[9] = tested on: Karpas 422 DLBCL cells; test: Anti-proliferation assay (ATPLite, 72 h), Karpas 422; assay type: cell-based; settings: in combination with CGS-21680
[10] = tested on: OPM2 cells; test: Anti-proliferation assay (ATPLite, 72 h), OPM2; assay type: cell-based, human; settings: in combination with CGS-21680; OPM-8
[11] = tested on: MM.1S cells
[12] = tested on: OCI-ly10 DLBCL cells; test: Anti-proliferation assay (ATPLite, 72 h), OCI-ly10; assay type: cell-based; settings: in combination with CGS-21680
[13] = tested on: MM.1R cells; test: Anti-proliferation assay (ATPLite, 72 h), MM.1R; assay type: cell-based; settings: in combination with ADAC; MM.1R
[14] = tested on: MOLP-8 cells; test: Anti-proliferation assay (ATPLite, 72 h), MOLP-8; assay type: cell-based; settings: in combination with CGS-21680
[15] = tested on: mantle cell lymphoma cell line JVM-13; test: Anti-proliferation assay (ATPLite, 72 h), JVM-13; assay type: cell-based, human; settings: in combination with HE-NECA; JVM-13
Description: (§1) All of the cell lines were cultured in RPMI-1640 media supplemented with 10% FBS except OCI Ly10 cells (IMDM media supplemented with 20% human serum). The ANBL-6 cell line culture media also contained 10 ng/ml IL-6. MM.1S, MM.1R, SU-DHL6, Karpas 422, and OCI ly10 cells were provided by the Dana Farber Cancer Institute. ANBL-6 cells were provided by Bob Orlowsli (M.D. Anderson Cancer Research Center). H929, RPMI-8226, GA-10, Farage, Mino, JVM-13, Pfeiffer, Toledo, and Kusami-1 cells were from ATCC (Cat #'s CCL-155, CRL-9068, CRL-2392 CRL-2630, CRL-3000, CRL-3003, CRL-2632, CRL-2631, and CRL-2724 respectively). MOLP-8, OPM2, EJM, and KSM-12-PE cells were from DSMZ.
(§2) Compounds were prepared in DMSO at 1000× the highest desired concentration. Master plates were generated consisting of serially diluted compounds in 2- or 3-fold dilutions in 384-well format. For single agent dose response curves, the master plates consisted of 9 individual compounds at 12 concentrations in 2- or 3-fold dilutions. For combination matrices, master plates consisted of individual compounds at 6 or 9 concentrations at 2- or 3-fold dilutions.
(§3) The average untreated well value (avg. untreated wells) is the arithmetic mean of 40 wells from the same assay plate treated with vehicle alone. Negative inhibition values result from local variations in treated wells as compared to untreated wells.
(§4) The uncertainty of each fitted parameter was estimated from the range over which the change in reduced chi-squared was less than one, or less than minimum reduced chi-squared if that minimum exceeded one, to allow for underestimated σI errors.
(§5) Single agent curve data were used to define a dilution series for each compound to, be used for combination screening in a 6×6 matrix format. […] For compounds with no detectable single agent activity, a dilution factor of 4 was used, starting from the highest achievable concentration.
(§6) The Loewe additivity model was used to quantify combination effects. Combinations were ranked initially by Additivity Excess Volume, which is defined as ADD Volume=ΣCX, CY(Idata−ILoewe). where ILoewe(CX,CY) is the inhibition that satisfies (CX/ECX)+(CY/ECY)=1, and ECX,Y are the effective concentrations at ILoewe for the single agent curves. A “Synergy Score” was also used, where the Synergy Score S=log fX log fY ΣIdata (Idata−ILoewe), summed over all non-single-agent concentration pairs, and where log fX,Y is the natural logarithm of the dilution factors used for each single agent.

[16] = tested on: Pfeiffer (diffuse large B cell lymphoma) cells; test: Anti-proliferation assay (ATPLite, 72 h), Pfeiffer; assay type: cell-based; settings: in combination with HE-NECA
Description: as §1, §2
(§7) The average untreated well value (avg. untreated wells) is the arithmetic mean of 40 wells from the same assay plate treated with vehicle alone. […]
(§8) The Loewe additivity model was used to quantify combination effects. […]

[17] = tested on: Kasumi-1 (acute myelogenous leukemia) cells; test: Anti-proliferation assay (ATPLite, 72 h), Kasumi-1; assay type: cell-based; settings: in combination with HE-NECA
Description: as §1, §2, §7, §8

[18] = tested on: mantle cell lymphoma cell line Mino; test: Anti-proliferation assay (ATPLite, 72 h), Mino; assay type: cell-based, human; settings: in combination with HE-NECA; Mino
Description: as §1, §2, §3, §4, §5, §6

C[C@@H]1C[C@H]2[C@@H]3CCC4=CC(=O)C=C[C@]4(C)[C@@]3(F)[C@@H](O)C[C@]2(C)[C@@]1(O)C(=O)CO [dexamethasone]
Induction of CLL cell apoptosis ([1]; Patient #1, Dexamethasone 1 nM alone): 9.3% | Induction of CLL cell apoptosis ([1]; Patient #1, Dexamethasone 10 nM alone): 33% | Induction of CLL cell apoptosis ([1]; Patient #1, Dexamethasone 100 nM alone): 56% | Induction of CLL cell apoptosis ([1]; Patient #2, Dexamethasone 8.4 nM alone): 8.4% | Induction of CLL cell apoptosis ([1]; Patient #2, Dexamethasone 11 nM alone): 11% | Induction of CLL cell apoptosis ([1]; Patient #2, Dexamethasone 36 nM alone): 36% | Induction of CLL cell apoptosis ([1]; Patient #2, Dexamethasone 50 nM alone): 50% | apoptosis, CLL cells patient 1 ([1]; patient 1, 48 hours): 33% | apoptosis, CLL cells patient #2 ([1]; patient #2, 48 hours): 27% | synergy score [2]: 4.71 | synergy score ([3]; in combination with ADAC, H929): 7.09 | synergy score ([4]; in combination with CGS-21680): 5.32 | synergy score ([5]; in combination with CGS-21680, KSM-12-PE): 1.27 | synergy score [6]: 4.85 | percent inhibition of cell proliferation ([7]; DEX 0.0462 nM, Cl-IB-MECA 0 nM, MM.1S, 72 h): 12% | percent inhibition of cell proliferation ([7]; DEX 0.139 nM alone, listed as DEX): 1.8% and 10% | percent inhibition of cell proliferation ([7]; DEX 0.139 nM, Cl-IB-MECA 0 nM, MM.1S, 72 h): 0.78% | percent inhibition of cell proliferation ([7]; DEX 0.416 nM alone): 8.3% | percent inhibition of cell proliferation ([7]; DEX 1.85 nM alone, listed as DEX): 14% and 27% | percent inhibition of cell proliferation ([7]; DEX 1.85 nM, CCPA 0 μM, MM.1S, 72 h): 13% | percent inhibition of cell proliferation ([7]; DEX 3.74 nM alone): 32% | percent inhibition of cell proliferation ([7]; DEX 3.74 nM, Cl-IB-MECA 0 nM, MM.1S, 72 h): 22% | percent inhibition of cell proliferation ([7]; DEX 5.56 nM alone, listed as DEX): 20% and 30% and 33% | percent inhibition of cell proliferation ([7]; DEX 5.56 nM, CCPA 0 μM, MM.1S, 72 h): 36% | percent inhibition of cell proliferation ([7]; DEX 11.2 nM alone, listed as DEX): 28% and 54% | percent inhibition of cell proliferation ([7]; DEX 11.2 nM, Cl-IB-MECA 0 nM, MM.1S, 72 h): 29% | percent inhibition of cell proliferation ([7]; DEX 33.7 nM alone, listed as DEX): 48% and 64% | percent inhibition of cell proliferation ([7]; DEX 33.7 nM, Cl-IB-MECA 0 nM, MM.1S, 72 h): 56% | percent inhibition of cell proliferation ([7]; DEX 0.0378 μM alone): 61% | percent inhibition of cell proliferation ([7]; DEX 50 nM alone, listed as DEX): 55% and 79% and 70% | percent inhibition of cell proliferation ([7]; DEX 50 nM, CCPA 0 μM, MM.1S, 72 h): 72% | percent inhibition of cell proliferation ([7]; DEX 101 nM alone, listed as DEX): 64% and 68% | percent inhibition of cell proliferation ([7]; DEX 101 nM, Cl-IB-MECA 0 nM, MM.1S, 72 h): 67% | percent inhibition of cell proliferation ([7]; DEX 0.113 μM alone): 76% | percent inhibition of cell proliferation ([7]; DEX 150 nM alone, listed as DEX): 73% and 87% and 80% | percent inhibition of cell proliferation ([7]; DEX 150 nM, CCPA 0 μM, MM.1S, 72 h): 76% | percent inhibition of cell proliferation ([7]; DEX 303 nM alone): 70% | percent inhibition of cell proliferation ([7]; DEX 0.34 μM alone): 78% | percent inhibition of cell proliferation ([7]; DEX 1.02 μM alone): 82% | percent inhibition of cell proliferation ([7]; DEX 0.0462. nM alone): −2.5% | percent inhibition of cell proliferation ([7]; DEX 0.4.16 nM alone): −5.2% | percent inhibition of cell proliferation ([7]; DEX 0.4.16 nM, Cl-IB-MECA 0 nM, MM.1S, 72 h): 4.5% | percent inhibition of cell proliferation ([7]; DEX 3.74. nM alone): 18% | percent inhibition of cell proliferation ([7]; DEX […], Cl-IB-MECA 0 nM, MM.1S, 72 h): 9.7% | change in IC50 when cultured in the presence of IL-6 ([7]; MM.1S, 72 hours, 10 ng/ml IL-6 vs no IL-6): 2.9 fold | synergy score ([7]; in combination with ADAC, MM.1S): 1.98 | synergy score ([7]; in combination with CGS-21680, MM.1S): 8.06 | synergy score [8]: 1.25 | synergy score [9]: 4.32 | synergy score [10]: 2.85 | inhibition [11]: 47% and 36% and 60% and 48% | synergy score [12]: 4.21 | synergy score [13]: 0.33 | synergy score [14]: 4.86

COC1=C2C[C@@H](C)C[C@H](OC)[C@H](O)[C@@H](C)/C=C(\C)[C@H](OC(N)=O)[C@@H](OC)/C=C\C=C(/C)C(=O)NC(=CC1=O)C2=O [geldanomycin]
synergy score [3]: 1.82 | synergy score [15]: 1.84 | synergy score [16]: 2.1 | synergy score ([4]; in combination with HE-NECA): 1.48 | synergy score ([5]; in combination with HE-NECA, KSM-12_PE): 1.37 | synergy score [17]: 2.47 | synergy score [7]: 2.2 | synergy score [18]: 1.27
